Data from the Kinase Knowledgebase extract (Sharma et al. 2016).
pIC50: −log10 of the molar value.

Experiments:
PIK3CG (human) = PIK3CG (human) (UniProt P48736); assay: Assessment of PIK3CG Kinase Activity
PIK3CD (Human) [1] = molecular target: PIK3CD (Human) (UniProt O00329); assay: Assessment of PIK3CD Kinase Activity in RAJI Cells
PIK3CB (Human) = PIK3CB (Human) (UniProt P42338); assay: Assessment of PIK3CB Kinase Activity
PIK3CD (Human) [2] = molecular target: PIK3CD (Human) (UniProt O00329); assay: Assessment of PIK3CD Kinase Activity
PIK3CA (human) [3] = molecular target: PIK3CA (human) (UniProt P42336); assay: Assessment of PIK3CA Kinase Activity in SKOV-3 Cells
Sequence of PIK3CA (human) (P42336 whole entry, looked up): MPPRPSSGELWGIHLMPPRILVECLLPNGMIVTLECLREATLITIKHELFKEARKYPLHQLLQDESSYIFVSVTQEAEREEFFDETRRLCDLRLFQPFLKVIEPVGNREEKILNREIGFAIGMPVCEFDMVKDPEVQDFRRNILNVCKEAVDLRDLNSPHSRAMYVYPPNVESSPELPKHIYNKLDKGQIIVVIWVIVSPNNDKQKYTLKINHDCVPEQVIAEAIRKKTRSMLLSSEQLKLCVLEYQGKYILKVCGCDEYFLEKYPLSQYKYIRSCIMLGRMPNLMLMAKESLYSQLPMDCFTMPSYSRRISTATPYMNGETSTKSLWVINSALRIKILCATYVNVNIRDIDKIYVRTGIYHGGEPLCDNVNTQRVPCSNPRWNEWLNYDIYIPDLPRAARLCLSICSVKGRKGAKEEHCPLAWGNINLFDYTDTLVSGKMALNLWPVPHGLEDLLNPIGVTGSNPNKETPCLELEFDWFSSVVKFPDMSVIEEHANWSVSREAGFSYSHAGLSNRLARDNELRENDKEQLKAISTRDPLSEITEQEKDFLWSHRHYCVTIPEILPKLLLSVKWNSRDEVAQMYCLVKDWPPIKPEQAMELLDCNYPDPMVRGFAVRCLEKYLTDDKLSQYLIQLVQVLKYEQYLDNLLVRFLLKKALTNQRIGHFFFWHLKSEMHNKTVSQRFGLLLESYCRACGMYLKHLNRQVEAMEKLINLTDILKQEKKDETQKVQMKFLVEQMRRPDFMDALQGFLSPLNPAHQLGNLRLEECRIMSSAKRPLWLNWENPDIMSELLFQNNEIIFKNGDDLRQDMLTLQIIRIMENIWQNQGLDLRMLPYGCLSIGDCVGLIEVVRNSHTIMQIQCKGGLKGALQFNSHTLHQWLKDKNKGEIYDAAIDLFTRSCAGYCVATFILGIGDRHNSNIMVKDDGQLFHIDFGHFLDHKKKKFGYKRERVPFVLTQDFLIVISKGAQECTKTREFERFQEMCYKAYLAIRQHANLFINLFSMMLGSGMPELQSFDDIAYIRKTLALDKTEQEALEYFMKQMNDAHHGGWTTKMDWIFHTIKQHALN

PIK3CA (human) [4] = molecular target: PIK3CA (human) (UniProt P42336); assay: Assessment of PIK3CA Kinase Activity

Sequence of PIK3CD (Human) (O00329 whole entry, looked up): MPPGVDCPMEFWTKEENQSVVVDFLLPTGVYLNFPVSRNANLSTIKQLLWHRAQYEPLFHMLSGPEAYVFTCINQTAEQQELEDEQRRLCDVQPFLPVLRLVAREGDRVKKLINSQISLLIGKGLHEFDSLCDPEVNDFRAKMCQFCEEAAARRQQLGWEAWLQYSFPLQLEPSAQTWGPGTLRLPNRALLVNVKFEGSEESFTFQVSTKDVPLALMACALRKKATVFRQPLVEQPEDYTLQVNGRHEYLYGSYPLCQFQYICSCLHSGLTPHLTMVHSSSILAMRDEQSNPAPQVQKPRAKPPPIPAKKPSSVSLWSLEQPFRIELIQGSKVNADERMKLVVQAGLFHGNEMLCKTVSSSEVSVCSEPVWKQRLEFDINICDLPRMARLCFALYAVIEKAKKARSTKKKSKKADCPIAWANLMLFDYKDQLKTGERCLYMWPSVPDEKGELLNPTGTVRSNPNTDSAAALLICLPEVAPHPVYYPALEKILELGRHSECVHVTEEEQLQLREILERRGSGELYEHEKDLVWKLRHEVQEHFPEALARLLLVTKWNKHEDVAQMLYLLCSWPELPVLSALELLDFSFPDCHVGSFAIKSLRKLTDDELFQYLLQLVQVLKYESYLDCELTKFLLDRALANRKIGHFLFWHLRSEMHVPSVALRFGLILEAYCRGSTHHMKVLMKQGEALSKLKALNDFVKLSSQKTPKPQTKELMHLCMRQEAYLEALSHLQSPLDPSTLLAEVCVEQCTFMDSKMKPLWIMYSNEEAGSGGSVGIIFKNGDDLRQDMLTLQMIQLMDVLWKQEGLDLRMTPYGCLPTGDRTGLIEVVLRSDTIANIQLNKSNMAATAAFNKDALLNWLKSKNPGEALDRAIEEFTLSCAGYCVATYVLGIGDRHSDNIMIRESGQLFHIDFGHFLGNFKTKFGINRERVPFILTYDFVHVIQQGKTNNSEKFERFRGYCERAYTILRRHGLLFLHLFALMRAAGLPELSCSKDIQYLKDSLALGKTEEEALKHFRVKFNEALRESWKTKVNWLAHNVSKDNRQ
Sequence of PIK3CB (Human) (P42338 whole entry, looked up): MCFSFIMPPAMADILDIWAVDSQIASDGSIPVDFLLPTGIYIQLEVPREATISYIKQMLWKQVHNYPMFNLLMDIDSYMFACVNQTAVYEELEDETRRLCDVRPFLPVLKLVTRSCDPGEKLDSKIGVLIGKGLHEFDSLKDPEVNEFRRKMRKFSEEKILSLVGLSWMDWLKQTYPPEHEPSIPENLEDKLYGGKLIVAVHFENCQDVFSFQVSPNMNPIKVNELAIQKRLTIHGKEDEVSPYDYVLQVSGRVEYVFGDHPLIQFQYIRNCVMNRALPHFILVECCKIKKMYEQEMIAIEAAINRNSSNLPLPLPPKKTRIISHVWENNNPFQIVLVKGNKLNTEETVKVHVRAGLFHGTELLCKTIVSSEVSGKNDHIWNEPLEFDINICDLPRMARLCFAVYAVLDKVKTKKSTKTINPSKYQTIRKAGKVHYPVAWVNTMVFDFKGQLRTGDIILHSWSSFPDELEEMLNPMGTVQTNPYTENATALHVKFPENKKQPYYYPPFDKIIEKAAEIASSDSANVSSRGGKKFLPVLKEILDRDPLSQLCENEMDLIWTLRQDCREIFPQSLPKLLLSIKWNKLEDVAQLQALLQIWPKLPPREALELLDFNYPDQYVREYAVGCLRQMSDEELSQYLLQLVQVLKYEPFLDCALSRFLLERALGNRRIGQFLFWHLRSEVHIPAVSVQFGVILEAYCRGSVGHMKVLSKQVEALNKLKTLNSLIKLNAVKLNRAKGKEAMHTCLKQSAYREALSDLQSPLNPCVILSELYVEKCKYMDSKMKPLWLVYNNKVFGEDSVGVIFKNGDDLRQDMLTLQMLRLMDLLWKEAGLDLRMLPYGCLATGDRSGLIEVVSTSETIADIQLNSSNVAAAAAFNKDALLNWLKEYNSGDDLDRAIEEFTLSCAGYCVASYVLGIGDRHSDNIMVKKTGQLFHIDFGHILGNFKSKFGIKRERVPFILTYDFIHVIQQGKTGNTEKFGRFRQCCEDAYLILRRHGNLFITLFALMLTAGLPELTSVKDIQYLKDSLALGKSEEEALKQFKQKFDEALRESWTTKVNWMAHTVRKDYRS
Sequence of PIK3CG (human) (P48736 whole entry, looked up): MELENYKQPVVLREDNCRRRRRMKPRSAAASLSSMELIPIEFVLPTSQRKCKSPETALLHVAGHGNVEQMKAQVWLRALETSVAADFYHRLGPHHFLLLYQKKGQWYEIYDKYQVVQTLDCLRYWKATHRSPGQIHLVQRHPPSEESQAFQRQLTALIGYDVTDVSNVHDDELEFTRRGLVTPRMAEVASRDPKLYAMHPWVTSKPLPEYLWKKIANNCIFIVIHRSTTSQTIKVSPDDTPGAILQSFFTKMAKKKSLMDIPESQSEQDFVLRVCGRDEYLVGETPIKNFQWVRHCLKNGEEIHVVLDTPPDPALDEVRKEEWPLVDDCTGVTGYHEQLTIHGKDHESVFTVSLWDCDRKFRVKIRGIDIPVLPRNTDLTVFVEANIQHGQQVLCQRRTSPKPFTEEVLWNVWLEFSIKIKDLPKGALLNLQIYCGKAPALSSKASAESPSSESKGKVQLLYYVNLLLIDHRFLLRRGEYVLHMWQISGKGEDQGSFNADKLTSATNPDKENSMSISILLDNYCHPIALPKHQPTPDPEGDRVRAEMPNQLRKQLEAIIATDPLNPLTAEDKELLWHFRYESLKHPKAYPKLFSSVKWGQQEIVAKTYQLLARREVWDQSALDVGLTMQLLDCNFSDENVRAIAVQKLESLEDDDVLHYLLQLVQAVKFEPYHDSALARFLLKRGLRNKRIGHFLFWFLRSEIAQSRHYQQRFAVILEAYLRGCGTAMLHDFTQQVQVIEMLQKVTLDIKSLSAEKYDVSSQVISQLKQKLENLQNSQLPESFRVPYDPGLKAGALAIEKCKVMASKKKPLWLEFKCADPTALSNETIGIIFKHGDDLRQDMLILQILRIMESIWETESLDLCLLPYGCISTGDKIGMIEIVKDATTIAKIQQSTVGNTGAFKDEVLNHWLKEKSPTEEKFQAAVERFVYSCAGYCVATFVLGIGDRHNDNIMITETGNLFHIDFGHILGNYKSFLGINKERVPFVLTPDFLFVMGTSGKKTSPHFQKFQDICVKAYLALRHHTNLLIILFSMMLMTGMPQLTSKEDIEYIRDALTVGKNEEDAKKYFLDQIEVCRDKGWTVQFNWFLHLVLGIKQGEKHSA

pIC50 (PIK3CG (human))	pIC50 (PIK3CD (Human) [1])	pIC50 (PIK3CB (Human))	pIC50 (PIK3CD (Human) [2])	pIC50 (PIK3CA (human) [3])	pIC50 (PIK3CA (human) [4])	SMILES
> 7.00	> 7.00	< 5.00	> 7.00			C[C@H](Nc1ncnc2cccnc12)c1cc2cccc(-c3cnn(C)c3)c2c(=O)n1-c1ccccc1
> 7.00	> 7.00	< 5.00	> 7.00			Cc1ncc(-c2cccc3nc([C@H](C)Nc4nc(N)nc5cccnc45)n(-c4ccccc4)c(=O)c23)cn1
> 7.00	> 7.00	< 5.00	> 7.00	6.00 to 7.00		C[C@H](Nc1nc(N)nc2cccnc12)c1nc2cccc(-c3cnn(C)c3)c2c(=O)n1-c1ccccc1
> 7.00	> 7.00	< 5.00	> 7.00			COc1ncc(-c2cccc3nc([C@H](C)Nc4nc(N)nc5cccnc45)n(-c4ccccc4)c(=O)c23)cn1
	> 7.00		6.00 to 7.00			CC(C)n1c([C@H](C)Nc2ncnc3cccnc23)cc2cccc(-c3ccc(=O)n(C)c3)c2c1=O
> 7.00	> 7.00		> 7.00			C[C@H](Nc1ncnc2[nH]cnc12)c1cc2cccc(C(F)(F)F)c2c(=O)n1-c1cccc(F)c1
> 7.00		6.00 to 7.00	> 7.00		6.00 to 7.00	C[C@H](Nc1ncnc2cccnc12)c1cc2ccc(F)c(Cl)c2c(=O)n1-c1ccccc1
> 7.00		< 5.00	> 7.00		< 5.00	COc1ncc(-c2cccc3cc([C@H](C)Nc4nc(N)nc5cccnc45)n(-c4ccccc4)c(=O)c23)cn1
